The assay can be described thus: High Throughput Inhibition Assay: A high throughput assay was developed to screen for fascin specific inhibitors. Purified polymerized F-actin with or without fascin were mixed and incubated to allow actin bundle formation. F-actin polymers were then bound to the poly-D-lysine coated plates. After extensive washes, F-actin polymers were visualized by labeling them with Alexa Fluor 488 phalloidin. Four images were taken from each well and the average fiber length was analyzed for each tested compound.

Usually IC50 stands for the concentration that gives 50% inhibition. Read a low IC50 as greater potency in that assay. As for `O=C(Cn1cnc2c(cnn2C2CCS(=O)(O)(O)C2)c1=O)Nc1ccc(Cl)cc1` (stereo unspecified), the midpoint of inhibition, the IC50, lay at 4.3 µM.

The values above are taken from ChEMBL document CHEMBL5728313, “Methods for inhibiting fascin” (2021).
